From ChEMBL document CHEMBL1201862, “PubChem BioAssay data set” (2004)
The source made the active and inactive calls.

Key:
[1] = system: HEK293; assay: inhibition of NOD1-driven NF-kB reporter – cell-based, luminescence, uHTS, primary screen (AID 1578); assay type: functional; settings: Homo sapiens
[2] = decrease of insulin promoter-GFP reporter – imaging, high-content screening, mouse beta cells (AID 1628); assay type: functional; settings: MIN6
[3] = system: HEK293; assay: cells; assay type: functional, cell-based; settings: Homo sapiens
[4] = MIN6 cell viability loss – mouse insulinoma, cytotoxicity control, dose response (AID 2122); assay type: functional;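 note: confirmatory high-throughput counterscreen run to flag cytotoxic compounds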
[5] = system: HEK293; assay: cells; assay type: functional, cell-based; settings: Homo sapiens; remark: listed apart in the source
[6] = system: HEK293; assay: NOD2 signaling inhibitors in MDP-stimulated cells, cell-based, uHTS, luminescence (AID 2001); assay type: functional; settings: Homo sapiens
[7] = Trypanosoma cruzi growth suppression in host cells – NIH3T3 host cells, beta-gal luminescence, confirmation (AID 2044); assay type: functional, cell-based;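 note: intracellular parasites grown in NIH/3T3 mouse fibroblasts as host cells; luminescent beta-galactosidase reporter signal from transgenic T. cruzi replicating inside host cells; inhibitors lower the luminescence signal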
[8] = NIH3T3 cell viability loss – ATP luminescence, mouse fibroblasts, counter-screen, dose response (AID 2010); assay type: functional, cell-based;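 note: cells exposed to compound for about 90 hours before reading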
[9] = system: INS1; assay: INS-1E survival protection against cytokine death – cell-based, luminescence, retest, dose response (AID 449756); assay type: functional; settings: Rattus norvegicus;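 note: cell death triggered by IL-1 beta plus TNF-alpha plus IFN-gamma mixture; protective hits raise ATP signal compared with cytokine alone wells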
[10] = reduction of Shn3 3'UTR-driven luciferase in osteoblasts – cell-based, Clone20 osteoblasts, firefly luciferase, cherry-picked, dose response (AID 624132); assay type: functional;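 note: firefly luciferase luminescence from reporter carrying the Shn3 3'UTR in osteoblasts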
[11] = loss of viability in HepG2 cells – cell-based, CellTiter-Glo, cherry-picked, cytotoxicity control for Shn3 inhibitor project, dose response (AID 624134); assay type: functional
[12] = non-specific 3'UTR reporter inhibition in Clone20-Shn3RL – cell-based, Renilla luciferase, cherry-picked, counter-screen for Shn3 inhibitor project, dose response (AID 624133); assay type: functional
[13] = Luminescence Cell-Based/Microorganism Confirmation at Dose of Inhibitors of Trypanosoma cruzi Infection. [Related pubchem assays: 1885, 1968 ]; assay type: functional
[14] = Luminescence Cell-Based Secondary HTS screen to identify cytotoxic compounds of NIH3T3 cells. [Related pubchem assays: 1885, 1968 ]; assay type: functional
[15] = T. cruzi infection blockers in NIH3T3 cells – beta-gal luminescence, NIH3T3 host cells, confirmation (AID 2630); assay type: functional, cell-based; settings: Mus musculus
[16] = system: Jurkat; assay: blockers of NF-kB activation in T cells – Jurkat, luciferase reporter, luminescence, B- and T-cell, dose response (AID 489004); assay type: functional, cell-based; settings: Homo sapiens;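 note: NF-kB luciferase reporter Jurkat cells stimulated with PMA plus ionomycin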
[17] = HEK-293T viability loss, compound-treated – cell-based, uHTS hits, cytotoxicity control for B/T-cell NF-kB inhibitor project, dose response (AID 489019); assay type: functional;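 note: IC50 reflects cytotoxicity as loss of cell viability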
[18] = target: Phospholipase A2 (Homo sapiens, UniProt P04054); assay: phospholipase A2 activity inhibition – biochemical, set 2, counter-screen for ATG4B inhibitor project, dose response (AID 588586); assay type: functional
[19] = target: T1, Cysteine protease ATG4B (Homo sapiens, UniProt Q9Y4P1); assay: autophagin-1 cysteine protease inhibition – biochemical, fluorescence, set 2, dose response (AID 588584); assay type: functional
T1 sequence (Q9Y4P1 whole entry): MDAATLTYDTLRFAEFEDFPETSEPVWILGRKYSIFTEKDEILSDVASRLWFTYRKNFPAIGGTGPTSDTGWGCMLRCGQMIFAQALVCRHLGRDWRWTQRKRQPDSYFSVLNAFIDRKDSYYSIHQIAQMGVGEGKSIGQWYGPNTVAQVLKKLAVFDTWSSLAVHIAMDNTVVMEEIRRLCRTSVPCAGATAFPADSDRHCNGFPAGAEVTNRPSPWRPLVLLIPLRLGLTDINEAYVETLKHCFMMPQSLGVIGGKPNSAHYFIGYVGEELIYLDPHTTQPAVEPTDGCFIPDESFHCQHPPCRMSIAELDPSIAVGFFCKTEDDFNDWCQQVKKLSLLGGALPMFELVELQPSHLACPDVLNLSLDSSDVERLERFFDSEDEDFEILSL

[20] = target: T2, Corticotropin-releasing factor receptor 2/Corticotropin-releasing factor-binding protein (Homo sapiens, UniProt P24387+Q13324); assay: Dose Response confirmation of uHTS hits for small molecule antagonists of the CRF-binding protein and CRF-R2 receptor complex.; assay type: functional; settings: read-out: IC50_Mean
T2 sequence (Q13324 whole entry): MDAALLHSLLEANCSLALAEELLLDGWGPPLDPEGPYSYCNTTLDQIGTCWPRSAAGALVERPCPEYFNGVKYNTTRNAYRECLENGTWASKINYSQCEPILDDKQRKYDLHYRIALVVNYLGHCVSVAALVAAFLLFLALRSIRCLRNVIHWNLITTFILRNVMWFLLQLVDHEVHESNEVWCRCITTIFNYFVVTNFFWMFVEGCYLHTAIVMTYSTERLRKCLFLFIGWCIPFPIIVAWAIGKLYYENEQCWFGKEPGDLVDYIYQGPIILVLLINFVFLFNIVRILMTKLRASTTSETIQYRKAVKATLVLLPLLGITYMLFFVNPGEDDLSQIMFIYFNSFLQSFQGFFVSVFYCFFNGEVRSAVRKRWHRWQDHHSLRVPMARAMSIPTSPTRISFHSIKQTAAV
T2 sequence (P24387 whole entry): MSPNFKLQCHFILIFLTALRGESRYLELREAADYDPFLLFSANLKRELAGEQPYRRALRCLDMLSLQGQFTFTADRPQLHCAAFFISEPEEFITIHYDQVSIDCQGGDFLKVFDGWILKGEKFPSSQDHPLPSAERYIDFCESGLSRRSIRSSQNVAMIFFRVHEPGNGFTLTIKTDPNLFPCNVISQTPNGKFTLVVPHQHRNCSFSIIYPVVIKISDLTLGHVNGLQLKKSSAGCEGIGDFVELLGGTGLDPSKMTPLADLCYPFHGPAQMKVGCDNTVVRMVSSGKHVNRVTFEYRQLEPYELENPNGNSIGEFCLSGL

[21] = target: T2, Corticotropin-releasing factor receptor 2/Corticotropin-releasing factor-binding protein; assay: activators of CRF receptor 2 with binding protein – uHTS hits, confirmation (AID 602473); assay type: functional; settings: read-out: EC50_Mean
[22] = target: Cytochrome P450 2D6 (Homo sapiens, UniProt P10635);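 note: CYP2D6 member of a cytochrome P450 panel assay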
[23] = target: Cytochrome P450 3A4 (Homo sapiens, UniProt P08684);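 note: CYP3A4 tested as one member of a cytochrome P450 panel screen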
[24] = system: HeLa; assay: viability loss in HeLa cells – cell-based, 24 h, cherry-picked samples, cytotoxicity control, dose response (AID 504726); assay type: functional; settings: Homo sapiens;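 note: potency for cytotoxicity as loss of luminescence signal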
[25] = target: ORF 73 (Human herpesvirus 8, UniProt O40947); assay: KSHV LANA DNA-binding disruption – biochemical, fluorescence polarization, cherry-picked samples, dose response (AID 504725); set-up: species or system Human gammaherpesvirus 8;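 note: fluorescence polarization of a labeled DNA duplex reporting LANA DNA binding; potency is for inhibitors that block LANA binding to the DNA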
[26] = target: Keap1/Nrf2 (Homo sapiens, UniProt Q14145); assay: disruptors of Keap1 binding to Nrf2 peptide – biochemical, fluorescence polarization, cherry-picked samples, dose response (AID 588683)
[27] = viability loss in HeLa cells – cytotoxicity control for MgcRacGAP inhibitor project, dose response (AID 624300); assay type: functional
[28] = target: T3, Rac GTPase-activating protein 1 (Homo sapiens, UniProt Q9H0H5); assay: blockers of MgcRacGAP-driven Rac1 GTP hydrolysis – biochemical, ADP Hunter fluorescence, primary and confirmatory, confirmation (AID 624330); assay type: functional
T3 sequence (Q9H0H5 whole entry): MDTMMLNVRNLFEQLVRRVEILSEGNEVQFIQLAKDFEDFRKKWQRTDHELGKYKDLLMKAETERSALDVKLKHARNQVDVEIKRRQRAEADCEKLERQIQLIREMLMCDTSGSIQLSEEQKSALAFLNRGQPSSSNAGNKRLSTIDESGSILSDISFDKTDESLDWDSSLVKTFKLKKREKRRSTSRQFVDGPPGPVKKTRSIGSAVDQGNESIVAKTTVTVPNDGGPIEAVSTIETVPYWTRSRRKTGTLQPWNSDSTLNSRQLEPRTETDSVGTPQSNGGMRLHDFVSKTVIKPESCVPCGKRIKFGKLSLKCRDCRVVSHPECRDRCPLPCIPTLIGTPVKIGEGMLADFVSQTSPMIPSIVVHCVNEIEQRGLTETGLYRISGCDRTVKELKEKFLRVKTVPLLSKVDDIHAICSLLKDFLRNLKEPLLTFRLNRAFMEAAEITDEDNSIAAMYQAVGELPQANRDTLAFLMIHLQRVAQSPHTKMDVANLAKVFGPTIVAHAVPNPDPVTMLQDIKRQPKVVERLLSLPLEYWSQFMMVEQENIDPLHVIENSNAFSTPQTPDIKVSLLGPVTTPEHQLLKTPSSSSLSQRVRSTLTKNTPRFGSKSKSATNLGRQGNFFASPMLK

[29] = inhibition of ARNT PAS-B/TACC3 complex formation – biochemical, AlphaScreen, cherry-picked samples, confirmation (AID 651703); assay type: functional, Homo sapiens;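 note: His-tagged ARNT PAS-B domain paired with GST-TACC3 E629A dimer coactivator fragment; potency of inhibitors that break up the complex and lower AlphaScreen signal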
[30] = target: SWI/SNF-related matrix-associated actin-dependent regulator of chromatin subfamily A member 2 (Homo sapiens, UniProt P51531); assay: Luminescence-based cell-based high throughput dose response assay to identify activators of the function of SWI/SNF related, matrix associated, actin dependent regulator of chromatin, subfamily a, member 2 (SMARCA2, BRM).; assay type: functional
[31] = Counterscreen for activators of the function of SWI/SNF related, matrix associated, actin dependent regulator of chromatin, subfamily a, member 2 (SMARCA2, BRM): Luminescence-based cell-based high throughput dose response assay to identify non-selective compounds using the VP16 reporter assay.; assay type: functional
[32] = system: HEK293; assay: cells; settings: Homo sapiens
[33] = system: HEK293; assay: cells; settings: Homo sapiens; remark: listed apart in the source
[34] = target: T4, Tyrosine-protein phosphatase non-receptor type 7 (Homo sapiens, UniProt P35236); assay: redox-active compounds inhibiting HePTP phosphatase – biochemical, fluorescence, mechanism study (AID 2068); assay type: functional
T4 sequence (P35236 whole entry): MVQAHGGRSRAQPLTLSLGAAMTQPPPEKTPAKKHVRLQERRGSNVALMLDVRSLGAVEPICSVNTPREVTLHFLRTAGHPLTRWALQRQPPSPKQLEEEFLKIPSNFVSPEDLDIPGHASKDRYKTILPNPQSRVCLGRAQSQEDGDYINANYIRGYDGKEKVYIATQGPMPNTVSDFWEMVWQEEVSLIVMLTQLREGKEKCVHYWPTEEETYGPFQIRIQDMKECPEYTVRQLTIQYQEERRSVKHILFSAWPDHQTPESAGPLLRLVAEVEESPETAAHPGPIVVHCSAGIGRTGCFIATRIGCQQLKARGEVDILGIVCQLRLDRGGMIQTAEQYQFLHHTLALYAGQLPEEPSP

[35] = target: Dual specificity protein phosphatase 6 (Rattus norvegicus, UniProt Q64346); assay type: functional;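 note: confirmatory in vitro dose-response testing of MKP-3 inhibition; recombinant His-tagged MKP-3 made in E. coli BL21 with OMFP substrate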
[36] = target: Dual specificity protein phosphatase 3 (Homo sapiens, UniProt P51452); assay: SAR VHR1 Fluorescent Assay for In Vitro dose response studies Set 3. [Related pubchem assays (depositor defined):AID1654, AID1661, AID1878]; assay type: functional

Sequence of Phospholipase A2 (P04054 whole entry): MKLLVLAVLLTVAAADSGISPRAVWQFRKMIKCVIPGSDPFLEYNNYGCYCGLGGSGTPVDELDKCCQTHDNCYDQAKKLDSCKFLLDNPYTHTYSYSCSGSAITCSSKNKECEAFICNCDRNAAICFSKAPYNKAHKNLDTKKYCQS
Sequence of Cytochrome P450 2D6 (P10635 whole entry): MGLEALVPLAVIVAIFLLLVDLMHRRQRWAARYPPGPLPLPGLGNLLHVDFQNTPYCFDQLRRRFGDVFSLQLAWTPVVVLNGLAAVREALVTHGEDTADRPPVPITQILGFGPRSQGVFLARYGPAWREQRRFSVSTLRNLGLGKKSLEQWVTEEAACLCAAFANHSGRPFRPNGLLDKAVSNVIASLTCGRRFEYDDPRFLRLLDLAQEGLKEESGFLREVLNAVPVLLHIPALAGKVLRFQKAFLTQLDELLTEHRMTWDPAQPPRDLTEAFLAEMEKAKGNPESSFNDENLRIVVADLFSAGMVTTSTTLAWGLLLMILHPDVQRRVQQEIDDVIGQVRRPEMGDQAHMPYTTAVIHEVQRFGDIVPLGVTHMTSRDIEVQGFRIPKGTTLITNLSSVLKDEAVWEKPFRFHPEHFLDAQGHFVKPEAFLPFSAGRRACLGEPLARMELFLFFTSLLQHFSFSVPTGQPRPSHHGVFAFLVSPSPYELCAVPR
Sequence of Keap1/Nrf2 (Q16236 whole entry): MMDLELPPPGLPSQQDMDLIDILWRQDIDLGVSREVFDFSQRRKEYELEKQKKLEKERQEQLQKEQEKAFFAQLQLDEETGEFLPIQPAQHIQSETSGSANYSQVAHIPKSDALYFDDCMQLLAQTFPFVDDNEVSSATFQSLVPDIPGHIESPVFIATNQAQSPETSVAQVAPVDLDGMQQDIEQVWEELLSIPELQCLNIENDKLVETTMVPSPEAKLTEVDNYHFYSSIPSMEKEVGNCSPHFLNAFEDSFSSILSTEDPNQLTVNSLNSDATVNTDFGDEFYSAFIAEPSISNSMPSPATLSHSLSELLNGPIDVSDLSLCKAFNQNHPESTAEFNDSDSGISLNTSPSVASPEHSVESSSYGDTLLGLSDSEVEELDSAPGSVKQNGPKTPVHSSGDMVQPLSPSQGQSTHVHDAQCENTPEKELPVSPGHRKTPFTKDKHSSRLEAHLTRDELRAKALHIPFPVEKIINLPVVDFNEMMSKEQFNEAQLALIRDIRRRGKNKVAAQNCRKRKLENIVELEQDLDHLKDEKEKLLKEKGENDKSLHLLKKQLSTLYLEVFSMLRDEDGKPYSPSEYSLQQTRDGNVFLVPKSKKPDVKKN
Sequence of Keap1/Nrf2 (Q14145 whole entry): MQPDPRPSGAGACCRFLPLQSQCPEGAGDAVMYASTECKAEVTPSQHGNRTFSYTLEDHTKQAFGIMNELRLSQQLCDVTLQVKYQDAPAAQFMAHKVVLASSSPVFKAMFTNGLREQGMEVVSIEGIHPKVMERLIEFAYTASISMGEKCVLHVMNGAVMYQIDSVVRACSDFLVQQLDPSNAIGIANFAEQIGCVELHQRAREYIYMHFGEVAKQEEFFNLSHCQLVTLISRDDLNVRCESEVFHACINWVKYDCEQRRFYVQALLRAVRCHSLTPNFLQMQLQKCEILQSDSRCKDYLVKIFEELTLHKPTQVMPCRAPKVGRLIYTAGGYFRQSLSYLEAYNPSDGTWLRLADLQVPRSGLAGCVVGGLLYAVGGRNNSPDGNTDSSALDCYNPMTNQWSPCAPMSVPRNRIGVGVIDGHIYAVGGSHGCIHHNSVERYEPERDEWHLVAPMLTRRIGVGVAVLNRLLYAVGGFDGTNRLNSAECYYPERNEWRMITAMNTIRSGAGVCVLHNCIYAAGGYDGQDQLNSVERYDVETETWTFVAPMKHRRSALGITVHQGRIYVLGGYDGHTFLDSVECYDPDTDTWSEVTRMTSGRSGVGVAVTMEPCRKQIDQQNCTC
Sequence of SWI/SNF-related matrix-associated actin-dependent regulator of chromatin subfamily A member 2 (P51531 whole entry): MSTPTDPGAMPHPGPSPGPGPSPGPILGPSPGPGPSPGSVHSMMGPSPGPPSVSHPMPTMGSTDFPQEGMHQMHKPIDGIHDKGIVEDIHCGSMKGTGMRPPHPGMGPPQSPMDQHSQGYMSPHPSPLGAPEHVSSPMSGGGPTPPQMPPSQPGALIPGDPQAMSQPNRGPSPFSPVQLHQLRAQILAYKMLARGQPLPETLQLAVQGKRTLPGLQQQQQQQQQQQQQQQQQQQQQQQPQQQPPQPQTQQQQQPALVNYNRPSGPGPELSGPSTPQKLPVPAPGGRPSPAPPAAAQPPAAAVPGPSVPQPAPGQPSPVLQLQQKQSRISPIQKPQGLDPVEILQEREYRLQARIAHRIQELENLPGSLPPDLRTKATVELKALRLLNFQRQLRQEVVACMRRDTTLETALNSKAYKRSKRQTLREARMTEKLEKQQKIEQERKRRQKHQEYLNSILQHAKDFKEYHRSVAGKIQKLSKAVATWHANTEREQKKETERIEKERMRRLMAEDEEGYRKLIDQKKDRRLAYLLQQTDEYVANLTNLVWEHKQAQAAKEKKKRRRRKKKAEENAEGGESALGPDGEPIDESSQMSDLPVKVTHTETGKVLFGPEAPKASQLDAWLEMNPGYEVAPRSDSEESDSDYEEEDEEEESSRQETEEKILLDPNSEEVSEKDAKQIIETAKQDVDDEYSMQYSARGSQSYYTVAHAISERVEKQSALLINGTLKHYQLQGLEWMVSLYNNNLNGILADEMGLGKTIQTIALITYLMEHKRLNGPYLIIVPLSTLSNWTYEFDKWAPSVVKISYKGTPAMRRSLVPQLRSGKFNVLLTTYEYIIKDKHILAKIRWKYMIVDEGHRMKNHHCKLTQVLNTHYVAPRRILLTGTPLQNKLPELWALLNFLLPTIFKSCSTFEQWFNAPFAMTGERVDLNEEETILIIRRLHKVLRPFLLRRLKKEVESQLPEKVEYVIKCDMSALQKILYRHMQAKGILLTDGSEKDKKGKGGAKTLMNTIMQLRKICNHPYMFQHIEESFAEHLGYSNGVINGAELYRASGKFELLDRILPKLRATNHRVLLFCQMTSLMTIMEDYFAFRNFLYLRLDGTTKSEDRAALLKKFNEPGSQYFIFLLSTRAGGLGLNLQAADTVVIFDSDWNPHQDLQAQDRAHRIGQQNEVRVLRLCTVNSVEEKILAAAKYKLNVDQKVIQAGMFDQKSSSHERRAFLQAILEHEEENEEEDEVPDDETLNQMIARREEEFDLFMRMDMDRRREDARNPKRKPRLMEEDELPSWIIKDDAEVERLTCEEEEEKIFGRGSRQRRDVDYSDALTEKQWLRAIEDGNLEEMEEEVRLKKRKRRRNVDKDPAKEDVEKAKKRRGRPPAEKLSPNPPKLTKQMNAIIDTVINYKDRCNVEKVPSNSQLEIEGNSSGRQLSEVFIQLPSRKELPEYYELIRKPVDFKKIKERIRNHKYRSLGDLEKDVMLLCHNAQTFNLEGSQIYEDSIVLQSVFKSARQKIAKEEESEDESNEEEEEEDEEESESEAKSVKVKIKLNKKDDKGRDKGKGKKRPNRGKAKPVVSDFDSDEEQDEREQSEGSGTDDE
Sequence of ORF 73 (O40947 whole entry): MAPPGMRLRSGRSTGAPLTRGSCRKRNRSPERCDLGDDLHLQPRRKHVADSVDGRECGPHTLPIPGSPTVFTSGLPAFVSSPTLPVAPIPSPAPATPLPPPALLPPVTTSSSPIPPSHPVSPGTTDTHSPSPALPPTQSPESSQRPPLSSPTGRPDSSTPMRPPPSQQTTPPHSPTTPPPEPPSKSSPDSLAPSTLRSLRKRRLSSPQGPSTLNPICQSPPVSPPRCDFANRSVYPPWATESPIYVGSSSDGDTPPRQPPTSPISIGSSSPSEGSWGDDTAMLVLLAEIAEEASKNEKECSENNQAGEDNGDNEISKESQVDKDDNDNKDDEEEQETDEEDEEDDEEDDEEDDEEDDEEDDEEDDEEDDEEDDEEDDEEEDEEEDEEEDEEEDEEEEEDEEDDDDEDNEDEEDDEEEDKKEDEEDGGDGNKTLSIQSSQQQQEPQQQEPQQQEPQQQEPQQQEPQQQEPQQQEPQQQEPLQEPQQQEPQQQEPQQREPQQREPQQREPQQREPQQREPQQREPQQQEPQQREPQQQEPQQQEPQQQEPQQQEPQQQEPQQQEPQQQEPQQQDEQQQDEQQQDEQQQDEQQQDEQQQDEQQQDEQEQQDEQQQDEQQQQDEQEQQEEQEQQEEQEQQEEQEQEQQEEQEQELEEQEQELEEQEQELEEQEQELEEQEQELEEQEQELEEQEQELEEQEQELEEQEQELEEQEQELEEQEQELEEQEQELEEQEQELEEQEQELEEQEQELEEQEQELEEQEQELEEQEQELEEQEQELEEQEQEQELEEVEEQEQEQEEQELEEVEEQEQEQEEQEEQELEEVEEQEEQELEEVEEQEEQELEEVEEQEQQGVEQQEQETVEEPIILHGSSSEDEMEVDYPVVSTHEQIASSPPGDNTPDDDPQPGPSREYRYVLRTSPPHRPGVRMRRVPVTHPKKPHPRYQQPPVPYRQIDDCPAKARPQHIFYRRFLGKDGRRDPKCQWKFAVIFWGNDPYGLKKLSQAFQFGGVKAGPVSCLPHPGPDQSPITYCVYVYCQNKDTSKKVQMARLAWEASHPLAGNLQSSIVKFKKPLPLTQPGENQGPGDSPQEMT
Sequence of Dual specificity protein phosphatase 6 (Q64346 whole entry): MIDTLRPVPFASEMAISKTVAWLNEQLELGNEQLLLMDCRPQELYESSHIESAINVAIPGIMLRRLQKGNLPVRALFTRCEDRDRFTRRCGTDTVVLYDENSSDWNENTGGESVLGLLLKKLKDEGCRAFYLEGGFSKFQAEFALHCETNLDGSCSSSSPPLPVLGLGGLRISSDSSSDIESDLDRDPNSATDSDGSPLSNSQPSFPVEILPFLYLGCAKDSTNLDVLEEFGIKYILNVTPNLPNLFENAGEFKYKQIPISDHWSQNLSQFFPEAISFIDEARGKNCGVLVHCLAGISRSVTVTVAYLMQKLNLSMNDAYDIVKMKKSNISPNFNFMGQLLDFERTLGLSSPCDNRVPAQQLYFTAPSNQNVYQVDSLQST

COc1ccc(CC2(CO)CCN(CC3=Cc4cc(Cl)ccc4OC3)CC2)cc1
EC50 [1]: 5.44 µM (active) | IC50 [2]: 1.79 µM (active) | IC50 [3]: 3.77 µM (active) | IC50 [4]: 1.28 µM (active) | IC50 [5]: 8.64 µM (active) | IC50 [6]: 4.31 µM (active) | EC50 [7]: 1.68 µM (active) | EC50 [8]: > 60 µM (inconclusive) | AC50 [9]: 3.28 µM (active) | AC50 [10]: 1.33 µM (active) | AC50 [11]: 7.73 µM (active) | AC50 [12]: 7.74 µM (active)

COc1ccccc1/C=C/C(=O)OCCCN(C)C
EC50 [13]: 2.52 µM (active) | EC50 [14]: > 195 µM (not active) | EC50 [15]: 2.52 µM (active)

CCCCCNC(=O)c1ccc2c(=O)n(CC3CCCO3)c(=O)[nH]c2c1 (stereo unspecified)
IC50 [16]: > 80 µM (inactive) | IC50 [17]: > 80 µM (inactive)

CCOc1ccc(C(=O)Nc2cnn(Cc3ccc(Cl)c(Cl)c3)c2)cc1
IC50 [18]: 79.1 µM (inactive) | IC50 [19]: 68.1 µM (inactive) | IC50 [20]: > 47.1 µM (inactive) | EC50 [21]: > 53 µM (inactive) | AC50 [22]: 15.8 µM (inconclusive) | AC50 [23]: 22.4 µM (inconclusive)

CN(C)CCNc1ccc2ncn3c4ccc(O)cc4c(=O)c1c23
AC50 [24]: 11.5 µM (active) | AC50 [25]: 6.38 µM (active) | AC50 [26]: 3.79 µM (active) | CC50 [27]: 49.2 µM (active) | IC50 [28]: 46.8 µM (active) | AC50 [29]: 89 µM (active) | EC50 [30]: 11.5 µM (inactive) | EC50 [31]: > 91.1 µM (inactive) | EC50 [32]: > 6.62 µM (active) | EC50 [33]: > 59.6 µM (inactive)

CCN(CC)C(=O)c1cn(CCOc2ccccc2)c2ccccc12
IC50 [34]: 1.38 µM (active) | IC50 [35]: > 100 µM (inactive)

COc1cccc2sc(NC(=O)c3ccc(C(=O)c4ccccc4)cc3)nc12
IC50 [36]: > 66 µM (inactive)
